In assay [1] the target is T1, Dihydrofolate reductase (Mus musculus, UniProt P00375).
T1 sequence (P00375 whole entry): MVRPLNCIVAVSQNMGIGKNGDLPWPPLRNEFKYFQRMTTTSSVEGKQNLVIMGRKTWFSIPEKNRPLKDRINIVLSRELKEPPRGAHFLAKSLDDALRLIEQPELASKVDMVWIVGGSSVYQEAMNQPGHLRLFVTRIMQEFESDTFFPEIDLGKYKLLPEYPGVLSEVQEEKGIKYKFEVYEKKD
As to the kind of experiment: Concentration inhibiting dihydrofolate reductase derived from L1210 cells. Type of assay: cell-based.

The next assay concerns L1210. As to the kind of experiment: Concentration inhibiting L1210 cell growth in culture. Type of assay: functional, cell-based. The note with it: Mus musculus.
The target in assay [2] is reduced folate carrier (Mus musculus). As to the kind of experiment: Binding affinity towards Dihydrofolate reductase derived from L1210 cells using [3H]- MTX as the radioligand.
In assay [3] the target is T1, Dihydrofolate reductase. As to the kind of experiment: Concentration inhibiting Dihydrofolate reductase derived from L1210 cells. Type of assay: cell-based.
A short description of assay [4]: Concentration inhibiting Glycinamide ribotide formyltransferase of Lactobacillus casei. Further details: species or system Lacticaseibacillus casei.
The target in the next assay is T2, Thymidylate synthase (Lactobacillus casei, UniProt P00469).
T2 sequence (P00469 whole entry): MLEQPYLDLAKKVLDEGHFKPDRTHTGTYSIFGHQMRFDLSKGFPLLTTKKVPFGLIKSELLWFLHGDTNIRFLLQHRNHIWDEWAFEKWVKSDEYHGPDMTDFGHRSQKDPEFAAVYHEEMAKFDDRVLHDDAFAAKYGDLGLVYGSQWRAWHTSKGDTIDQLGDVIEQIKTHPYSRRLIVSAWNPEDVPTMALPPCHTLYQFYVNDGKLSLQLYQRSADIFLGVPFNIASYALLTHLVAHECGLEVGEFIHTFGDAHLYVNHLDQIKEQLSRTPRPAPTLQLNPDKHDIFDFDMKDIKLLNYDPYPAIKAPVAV
As to the kind of experiment: Concentration inhibiting thymidylate synthase enzyme of Lactobacillus casei. Further details: species or system Lacticaseibacillus casei.

Assay [5] deals with T3, Dihydrofolate reductase (Homo sapiens, UniProt P00374).
T3 sequence (P00374 whole entry): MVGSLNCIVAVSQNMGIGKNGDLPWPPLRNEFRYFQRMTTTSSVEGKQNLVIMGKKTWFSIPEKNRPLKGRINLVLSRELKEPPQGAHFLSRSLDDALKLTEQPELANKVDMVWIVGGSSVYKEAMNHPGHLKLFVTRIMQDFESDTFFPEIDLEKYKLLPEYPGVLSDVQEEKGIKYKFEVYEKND
As to the kind of experiment: Inhibitory activity towards dihydrofolate reductase derived from human manca leukemia cells.

Usually Ki stands for a measure of affinity in units of concentration, obtained from inhibition or displacement. Low readings indicate tighter binding, high ones weaker binding. A word on the IC50: it is the concentration needed to halve the response being measured. High values mean weaker potency, low ones greater potency. `Nc1nc(N)c2nc(CCc3ccc(C(=O)N[C@@H](CCC(=O)O)C(=O)O)cc3)cnc2n1`: the figures for the Ki (at Dihydrofolate reductase [1]; in assay [2]) were 0.0034 nM and 1200 nM, respectively. In the assay with L1210, this molecule gave an IC50 of 1.5 nM.

For the molecule `CN(Cc1cnc2nc(N)nc(N)c2n1)c1ccc(C(=O)N[C@@H](CCC(=O)O)C(=O)O)cc1` [METHOTREXATE], 5 nM corresponded to half-maximal inhibition in the assay on L1210 (IC50).

`CCC(Cc1cnc2nc(N)nc(N)c2n1)c1ccc(C(=O)N[C@@H](CCC(=O)O)C(=O)O)cc1` (some centres not stated) [EDATREXATE] gave an IC50 with L1210 of 0.65 nM.

As to `CCC(Cc1ccc(C(=O)NC(CCC(=O)O)C(=O)O)cc1)c1cnc2nc(N)nc(N)c2n1` (configuration not stated), the Ki on Dihydrofolate reductase [3] worked out at 0.0055 nM. Besides, the IC50 in assay [4] is over 50000 nM; in the assay on L1210, 4.7 nM; on Thymidylate synthase, over 100000 nM.

For the molecule `CC(Cc1ccc(C(=O)NC(CCC(=O)O)C(=O)O)cc1)c1cnc2nc(N)nc(N)c2n1` (configuration not stated), the IC50 against Dihydrofolate reductase [5] is 40 nM; in the assay with L1210 it was 0.24 nM; on Thymidylate synthase, over 100000 nM.

The values are drawn from ChEMBL document CHEMBL1124936, “Synthesis and antifolate properties of 9-alkyl-10-deazaminopterins” (J Med Chem, 1990).
